Reference: patent US9156845B2, “4-(substituted amino)-7H-pyrrolo[2,3-d] pyrimidines as LRRK2 inhibitors” (Pfizer Inc., priority 2012, dated 2015)
Counter-ions that a name gives are not always drawn.

Columns and labels:
[1] = target: mutant G2019S LRRK2 (Homo sapiens (Human), UniProt Q5S007, G2019S); experiment: LRRK2 Lantha Screen kinase assay, mutant enzyme; assay type: biochemical; details: geometric mean of 2-5 determinations unless otherwise indicated (a: >=6 determinations; b: single determination)
mutant G2019S LRRK2, sequence (Q5S007 970-2527 G2019S): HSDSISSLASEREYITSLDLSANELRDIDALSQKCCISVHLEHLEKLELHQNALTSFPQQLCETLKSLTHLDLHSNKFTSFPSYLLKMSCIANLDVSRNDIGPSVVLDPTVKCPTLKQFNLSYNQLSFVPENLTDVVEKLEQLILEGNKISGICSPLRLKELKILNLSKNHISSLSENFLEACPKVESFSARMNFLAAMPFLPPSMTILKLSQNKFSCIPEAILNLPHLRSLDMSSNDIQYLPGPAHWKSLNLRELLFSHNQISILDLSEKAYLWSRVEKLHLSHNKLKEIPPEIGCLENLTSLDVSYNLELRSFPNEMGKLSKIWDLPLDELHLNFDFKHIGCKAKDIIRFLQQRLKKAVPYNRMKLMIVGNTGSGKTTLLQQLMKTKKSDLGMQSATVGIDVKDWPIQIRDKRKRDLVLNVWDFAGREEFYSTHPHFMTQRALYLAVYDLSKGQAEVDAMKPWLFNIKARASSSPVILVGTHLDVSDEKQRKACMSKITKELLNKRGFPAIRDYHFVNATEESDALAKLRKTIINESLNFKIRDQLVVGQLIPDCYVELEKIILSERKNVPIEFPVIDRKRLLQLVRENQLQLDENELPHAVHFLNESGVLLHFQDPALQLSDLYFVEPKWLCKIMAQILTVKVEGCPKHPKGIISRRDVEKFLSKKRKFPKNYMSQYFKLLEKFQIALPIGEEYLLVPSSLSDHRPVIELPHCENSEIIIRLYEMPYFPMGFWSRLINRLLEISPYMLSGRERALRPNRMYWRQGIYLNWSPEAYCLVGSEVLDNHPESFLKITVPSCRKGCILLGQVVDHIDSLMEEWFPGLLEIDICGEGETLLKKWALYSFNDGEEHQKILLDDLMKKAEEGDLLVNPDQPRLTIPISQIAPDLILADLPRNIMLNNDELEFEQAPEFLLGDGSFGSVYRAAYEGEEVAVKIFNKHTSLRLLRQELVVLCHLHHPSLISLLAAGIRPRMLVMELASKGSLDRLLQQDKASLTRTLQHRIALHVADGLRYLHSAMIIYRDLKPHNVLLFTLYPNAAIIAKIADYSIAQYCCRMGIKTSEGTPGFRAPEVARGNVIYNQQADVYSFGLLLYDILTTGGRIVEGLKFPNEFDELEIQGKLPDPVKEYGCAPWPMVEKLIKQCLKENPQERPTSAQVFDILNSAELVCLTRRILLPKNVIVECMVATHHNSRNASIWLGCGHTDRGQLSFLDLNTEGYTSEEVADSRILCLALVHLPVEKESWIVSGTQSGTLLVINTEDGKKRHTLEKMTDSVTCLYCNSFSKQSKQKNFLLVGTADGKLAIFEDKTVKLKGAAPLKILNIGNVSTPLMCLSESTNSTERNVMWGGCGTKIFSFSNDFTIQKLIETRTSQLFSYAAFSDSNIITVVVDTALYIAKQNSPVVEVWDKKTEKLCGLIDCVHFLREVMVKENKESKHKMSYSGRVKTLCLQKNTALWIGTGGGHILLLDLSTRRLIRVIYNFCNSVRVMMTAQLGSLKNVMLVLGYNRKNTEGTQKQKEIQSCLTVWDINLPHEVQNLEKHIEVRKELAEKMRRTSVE
Method: LRRK2 kinase activity was measured using Lantha Screen technology from Invitrogen. GST-tagged truncated LRRK2 from Invitrogen (Cat # PV4874) was incubated with a fluorescein-labeled peptide substrate based upon ezrin/radixin/moesin (ERM), also known as LRRKtide (Invitrogen cat #PR8976A), in the presence of a dose response of compound. Upon completion, the assay was stopped and detected with a terbium labeled anti-phospho-ERM antibody (Invitrogen, cat #PR8975A). […] Aliquots (3.5 μL) of the 100% DMSO dose response were mixed with 46.5 μL water then 1 μL of this mixture was added to the 3 μL substrate mix in the 384-well plate. The kinase reaction was started with 3 μL of a working solution of LRRK2 enzyme at a concentration of 4 μg/mL. […] The reaction was allowed to progress at room temperature for two hours and then stopped with the addition of 7 μL of detection buffer (20 mM Tris pH 7.6, 0.01% NP-40, 0.02% NaN3, 6 mM EDTA with 2 nM terbium labeled anti-phospho-ERM).
All final concentrations of substrate ATP and enzyme were the same.

[2] = target: GST-tagged truncated LRRK2 (Homo sapiens (Human), UniProt Q5S007); experiment: LRRK2 Lantha Screen kinase assay; assay type: biochemical; details: geometric mean of 2-5 determinations unless otherwise indicated (a: >=6 determinations; b: single determination); read-out: LRRK2 WT IC50
GST-tagged truncated LRRK2, sequence (Q5S007 970-2527): as the sequence (Q5S007 970-2527 G2019S) above, with S1050G counted along it

**Q.** With `N#Cc1cccc(-c2c[nH]c3ncnc(N4CCO[C@H]5CCC[C@H]54)c23)c1` (relative stereo) [Example 208, rel-3-{4-[(4aR,7aS)-hexahydrocyclopenta[b][1,4]oxazin-4(4aH)-yl]-7H-pyrrolo[2,3-d]pyrimidin-5-yl}benzonitrile] as the molecule, how does the IC50 [1] read?
**A.** 0.186 µM

**Q.** And the IC50 [2]?
**A.** 0.0272 µM

**Q.** `CC1CCCN(c2ncnc3[nH]cc(-c4cccc(C#N)c4)c23)C1` (single isomer, unassigned) [Example 41] was tested. Which IC50 [1] did it give?
**A.** 0.172 µM

**Q.** What about the IC50 [2] of the same molecule?
**A.** 0.07 µM

**Q.** Which results are given for `CC1CCN(c2ncnc3[nH]cc(-c4cccc(C#N)c4)c23)C1` (single isomer, unassigned) [Example 71]?
**A.** IC50 [1]: 0.102 µM; IC50 [2]: 0.021 µM

**Q.** With `COCC1CN(c2ncnc3[nH]cc(-c4cccc(C#N)c4)c23)CCO1` (single isomer, unassigned) [Example 74] as the molecule, how does the IC50 [1] read?
**A.** 0.1 µM

**Q.** And the IC50 [2]?
**A.** 0.012 µM

**Q.** Which IC50 [1] does the source give for `N#Cc1cccc(-c2c[nH]c3ncnc(N4CCOC(c5cc[nH]n5)C4)c23)c1` (single isomer, unassigned) [Example 76, 3-{4-[2-(1H-pyrazol-3-yl)morpholin-4-yl]-7H-pyrrolo[2,3-d]pyrimidin-5-yl}benzonitrile] here?
**A.** 0.208 µM

**Q.** And the IC50 [2]?
**A.** 0.023 µM

**Q.** For `CC1CCN(c2ncnc3[nH]cc(-c4cccc(C#N)c4)c23)C1` (single isomer, unassigned) [Example 77], which IC50 [1] is on record?
**A.** 0.158 µM

**Q.** What about the IC50 [2] of the same molecule?
**A.** 0.039 µM

**Q.** Which results are given for `COCC1CN(c2ncnc3[nH]cc(-c4cccc(C#N)c4)c23)CCO1` (single isomer, unassigned) [Example 197]?
**A.** IC50 [1]: 0.245 µM; IC50 [2]: 0.214 µM

**Q.** What does the source list for `Cc1noc(C2CN(c3ncnc4[nH]cc(-c5cccc(C#N)c5F)c34)CCO2)n1` (single isomer, unassigned) [Example 213]?
**A.** IC50 [1]: 0.0957 µM; IC50 [2]: 0.00771 µM

**Q.** Which IC50 [1] does the source give for `Cc1[nH]c2ncnc(N3CCOCC3)c2c1-c1cccc(C#N)c1` [Example 2, 3-[6-Methyl-4-(morpholin-4-yl)-7H-pyrrolo[2,3-d]pyrimidin-5-yl]benzonitrile] here?
**A.** 0.043 µM

**Q.** What about the IC50 [2] of the same molecule?
**A.** 0.012 µM

**Q.** How did the IC50 [1] turn out when `N#Cc1cccc(-c2c[nH]c3ncnc(N4CCOCC4)c23)n1` [Example 3, 6-[4-(Morpholin-4-yl)-7H-pyrrolo[2,3-d]pyrimidin-5-yl]pyridine-2-carbonitrile] was run?
**A.** 0.026 µM

**Q.** What about the IC50 [2] of the same molecule?
**A.** 0.009 µM

**Q.** For `CN(C)c1ncnc2[nH]cc(-c3cccc(C#N)c3)c12` [Example 5, 3-[4-(Dimethylamino)-7H-pyrrolo[2,3-d]pyrimidin-5-yl]benzonitrile], which IC50 [1] is on record?
**A.** 0.015 µM

**Q.** And the IC50 [2]?
**A.** 0.005 µM

**Q.** Which results are given for `C[C@H]1CN(c2ncnc3[nH]cc(-c4cccc(C#N)c4)c23)CCO1` [Example 6, 3-{4-[(2S)-2-Methylmorpholin-4-yl]-7H-pyrrolo[2,3-d]pyrimidin-5-yl}benzonitrile]?
**A.** IC50 [1]: 0.037 µM; IC50 [2]: 0.007 µM

**Q.** Which results are given for `C[C@H]1CCCN(c2ncnc3[nH]cc(-c4cccc(CO)c4)c23)C1` [Example 7, (3-{4-[(3S)-3-Methylpiperidin-1-yl]-7H-pyrrolo[2,3-d]pyrimidin-5-yl}phenyl)methanol]?
**A.** IC50 [1]: 0.018 µM; IC50 [2]: 0.018 µM

**Q.** What does the source list for `c1nc(N2CCOCC2)c2c(-c3cn[nH]c3)c[nH]c2n1` [Example 8, 4-(Morpholin-4-yl)-5-(1H-pyrazol-4-yl)-7H-pyrrolo[2,3-d]pyrimidine, formate salt]?
**A.** IC50 [1]: 0.033 µM; IC50 [2]: 0.025 µM

**Q.** With `Cc1nc(N2CCOCC2)c2c(-c3cccc(C#N)c3)c[nH]c2n1` [Example 9, 3-[2-Methyl-4-(morpholin-4-yl)-7H-pyrrolo[2,3-d]pyrimidin-5-yl]benzonitrile] as the molecule, how does the IC50 [1] read?
**A.** 0.513 µM

**Q.** What about the IC50 [2] of the same molecule?
**A.** 0.042 µM

**Q.** What does the source list for `CN(C)c1ncnc2[nH]cc(-c3cccc(CO)c3)c12` [Example 10, {3-[4-(Dimethylamino)-7H-pyrrolo[2,3-d]pyrimidin-5-yl]phenyl}methanol]?
**A.** IC50 [1]: 0.023 µM; IC50 [2]: 0.034 µM

**Q.** How did the IC50 [1] turn out when `CC1(C)CCCN(c2ncnc3[nH]cc(-c4cccc(C#N)c4)c23)C1` [Example 11, 3-[4-(3,3-dimethylpiperidin-1-yl)-7H-pyrrolo[2,3-d]pyrimidin-5-yl]benzonitrile] was run?
**A.** 0.325 µM

**Q.** What about the IC50 [2] of the same molecule?
**A.** 0.09 µM

**Q.** Which results are given for `N#Cc1cccc(-c2c[nH]c3ncnc(N4CCCCC4)c23)c1` [Example 12, 3-[4-(piperidin-1-yl)-7H-pyrrolo[2,3-d]pyrimidin-5-yl]benzonitrile]?
**A.** IC50 [1]: 0.028 µM; IC50 [2]: 0.006 µM

**Q.** Which IC50 [1] does the source give for `NC(=O)C1CCCN(c2ncnc3[nH]cc(-c4ccccc4)c23)C1` (centres unmarked) [Example 13, 1-(5-phenyl-7H-pyrrolo[2,3-d]pyrimidin-4-yl)piperidine-3-carboxamide] here?
**A.** 0.039 µM

**Q.** And the IC50 [2]?
**A.** 0.041 µM

**Q.** How did the IC50 [1] turn out when `N#Cc1cccc(-c2c[nH]c3ncnc(N4CCC[C@H](O)C4)c23)c1` [Example 14, 3-{4-[(3S)-3-hydroxypiperidin-1-yl]-7H-pyrrolo[2,3-d]pyrimidin-5-yl}benzonitrile] was run?
**A.** 0.095 µM

**Q.** What about the IC50 [2] of the same molecule?
**A.** 0.017 µM

**Q.** Which results are given for `C[C@H]1CCCN(c2ncnc3[nH]cc(-c4ccccc4)c23)C1` [Example 15, 4-[(3S)-3-methylpiperidin-1-yl]-5-phenyl-7H-pyrrolo[2,3-d]pyrimidine]?
**A.** IC50 [1]: 0.092 µM; IC50 [2]: 0.091 µM

**Q.** Which results are given for `C[C@H]1CCCN(c2ncnc3[nH]cc(-c4cccc(C#N)c4)c23)C1` [Example 16, 3-{4-[(3S)-3-methylpiperidin-1-yl]-7H-pyrrolo[2,3-d]pyrimidin-5-yl}benzonitrile]?
**A.** IC50 [1]: 0.045 µM; IC50 [2]: 0.016 µM

**Q.** With `C[C@H]1CCCN(c2ncnc3[nH]cc(-c4cnn(C)c4)c23)C1` [Example 17, 4-[(3S)-3-methylpiperidin-1-yl]-5-(1-methyl-1H-pyrazol-4-yl)-7H-pyrrolo[2,3-d]pyrimidine] as the molecule, how does the IC50 [1] read?
**A.** 0.012 µM

**Q.** And the IC50 [2]?
**A.** 0.014 µM

**Q.** For `c1ccc(-c2c[nH]c3ncnc(N4CCCC4)c23)cc1` [Example 18, 5-phenyl-4-(pyrrolidin-1-yl)-7H-pyrrolo[2,3-d]pyrimidine], which IC50 [1] is on record?
**A.** 0.047 µM

**Q.** What about the IC50 [2] of the same molecule?
**A.** 0.071 µM

**Q.** With `OCC1CCN(c2ncnc3[nH]cc(-c4ccccc4)c23)CC1` [Example 19, [1-(5-phenyl-7H-pyrrolo[2,3-d]pyrimidin-4-yl)piperidin-4-yl]methanol] as the molecule, how does the IC50 [1] read?
**A.** 0.029 µM

**Q.** And the IC50 [2]?
**A.** 0.038 µM

**Q.** Which IC50 [1] does the source give for `N#CC1CCCN(c2ncnc3[nH]cc(-c4cccc(CO)c4)c23)C1` (centres unmarked) [Example 20, 1-{5-[3-(hydroxymethyl)phenyl]-7H-pyrrolo[2,3-d]pyrimidin-4-yl}piperidine-3-carbonitrile] here?
**A.** 0.031 µM

**Q.** What about the IC50 [2] of the same molecule?
**A.** 0.056 µM

**Q.** For `N#Cc1cccc(-c2c[nH]c3ncnc(N4CCCC(C#N)C4)c23)c1` (centres unmarked) [Example 21, 1-[5-(3-cyanophenyl)-7H-pyrrolo[2,3-d]pyrimidin-4-yl]piperidine-3-carbonitrile], which IC50 [1] is on record?
**A.** 0.183 µM

**Q.** What about the IC50 [2] of the same molecule?
**A.** 0.057 µM

**Q.** `C[C@@H]1C[C@H](C)CN(c2ncnc3[nH]cc(-c4cnn(C)c4)c23)C1` [Example 22, 4-(3,5-cis-dimethylpiperidin-1-yl)-5-(1-methyl-1H-pyrazol-4-yl)-7H-pyrrolo[2,3-d]pyrimidine] was tested. Which IC50 [1] did it give?
**A.** 0.016 µM

**Q.** And the IC50 [2]?
**A.** 0.016 µM

**Q.** `COc1ccc(C#N)cc1-c1c[nH]c2ncnc(N3CCCC(C)C3)c12` (centres unmarked) [Example 23, 4-methoxy-3-[4-(3-methylpiperidin-1-yl)-7H-pyrrolo[2,3-d]pyrimidin-5-yl]benzonitrile] was tested. Which IC50 [1] did it give?
**A.** 0.046 µM

**Q.** What about the IC50 [2] of the same molecule?
**A.** 0.025 µM

**Q.** How did the IC50 [1] turn out when `COc1ccc(C#N)cc1-c1c[nH]c2ncnc(N(C)C)c12` [Example 24, 3-[4-(dimethylamino)-7H-pyrrolo[2,3-d]pyrimidin-5-yl]-4-methoxybenzonitrile] was run?
**A.** 0.03 µM

**Q.** And the IC50 [2]?
**A.** 0.024 µM

**Q.** Which IC50 [1] does the source give for `COc1ccc(Cl)cc1-c1c[nH]c2ncnc(N(C)C)c12` [Example 25, 5-(5-chloro-2-methoxyphenyl)-N,N-dimethyl-7H-pyrrolo[2,3-d]pyrimidin-4-amine] here?
**A.** 0.019 µM

**Q.** What about the IC50 [2] of the same molecule?
**A.** 0.022 µM

**Q.** What does the source list for `N#Cc1cccc(-c2c[nH]c3ncnc(N4CCC(c5ncc[nH]5)CC4)c23)c1` [Example 26, 3-{4-[4-(1H-imidazol-2-yl)piperidin-1-yl]-7H-pyrrolo[2,3-d]pyrimidin-5-yl}benzonitrile]?
**A.** IC50 [1]: 0.23 µM; IC50 [2]: 0.042 µM

**Q.** `COCC1CCCN(c2ncnc3[nH]cc(-c4cccc(C#N)c4)c23)C1` (centres unmarked) [Example 27, 3-{4-[3-(methoxymethyl)piperidin-1-yl]-7H-pyrrolo[2,3-d]pyrimidin-5-yl}benzonitrile] was tested. Which IC50 [1] did it give?
**A.** 0.219 µM

**Q.** What about the IC50 [2] of the same molecule?
**A.** 0.095 µM

**Q.** `CN1CCC2(CC1)CN(c1ncnc3[nH]cc(-c4cccc(C#N)c4)c13)CCO2` [Example 28, 3-[4-(9-methyl-1-oxa-4,9-diazaspiro[5.5]undec-4-yl)-7H-pyrrolo[2,3-d]pyrimidin-5-yl]benzonitrile] was tested. Which IC50 [1] did it give?
**A.** 0.201 µM

**Q.** And the IC50 [2]?
**A.** 0.04 µM

**Q.** How did the IC50 [1] turn out when `COC1CCCN(c2ncnc3[nH]cc(-c4cccc(C#N)c4)c23)C1` (centres unmarked) [Example 29, 3-[4-(3-methoxypiperidin-1-yl)-7H-pyrrolo[2,3-d]pyrimidin-5-yl]benzonitrile] was run?
**A.** 0.154 µM

**Q.** What about the IC50 [2] of the same molecule?
**A.** 0.079 µM

**Q.** What does the source list for `COCC1CN(c2ncnc3[nH]cc(-c4cccc(C#N)c4)c23)CCO1` (centres unmarked) [Example 30, 3-{4-[2-(methoxymethyl)morpholin-4-yl]-7H-pyrrolo[2,3-d]pyrimidin-5-yl}benzonitrile]?
**A.** IC50 [1]: 0.121 µM; IC50 [2]: 0.017 µM

**Q.** Which IC50 [1] does the source give for `CN(C)C(=O)CCNc1ncnc2[nH]cc(-c3cccc(C#N)c3)c12` [Example 31, N^3-[5-(3-cyanophenyl)-7H-pyrrolo[2,3-d]pyrimidin-4-yl]-N,N-dimethyl-beta-alaninamide] here?
**A.** 0.248 µM

**Q.** And the IC50 [2]?
**A.** 0.054 µM

**Q.** What does the source list for `N#Cc1cccc(-c2c[nH]c3ncnc(N4CCC(F)(F)CC4)c23)c1` [Example 32, 3-[4-(4,4-difluoropiperidin-1-yl)-7H-pyrrolo[2,3-d]pyrimidin-5-yl]benzonitrile]?
**A.** IC50 [1]: 0.333 µM; IC50 [2]: 0.067 µM

**Q.** Which results are given for `N#Cc1cccc(-c2c[nH]c3ncnc(N4CCC(F)CC4)c23)c1` [Example 33, 3-[4-(4-fluoropiperidin-1-yl)-7H-pyrrolo[2,3-d]pyrimidin-5-yl]benzonitrile]?
**A.** IC50 [1]: 0.096 µM; IC50 [2]: 0.017 µM

**Q.** How did the IC50 [1] turn out when `N#Cc1cccc(-c2c[nH]c3ncnc(N4CCC(F)CC4)c23)c1` [Example 33A, 3-[4-(4-fluoropiperidin-1-yl)-7H-pyrrolo[2,3-d]pyrimidin-5-yl]benzonitrile] was run?
**A.** 0.056 µM

**Q.** And the IC50 [2]?
**A.** 0.017 µM
